The text below walks through data of publication PMC10460844, “Real‐Time Monitoring of Multitarget Antimicrobial Mechanisms of Peptoids Using Label‐Free Imaging with Optical Diffraction Tomography” (Advanced Science, 2023).

Square brackets hold non-standard residues; d marks the D form. Peptide text beside a SMILES is read from it. Gly(N(CH2)2(3-indolyl)) = O=C(O)CNCCc1c[nH]c2ccccc12; Nspe = C[C@H](NCC(=O)O)c1ccccc1; Nphe = O=C(O)CNCc1ccccc1; Nlys = NCCCCNCC(=O)O A value given as a limit tells only on which side of the number the result lay.

Series [1] is described as follows: Analytical reversed-phase HPLC elution (hydrophobicity). It counts as physicochemical. To be noted: Table S1; analytical RP-HPLC, SunFire C18, water/ACN + 0.1% TFA, 5 to 100% B linear over 30 min, 1 mL/min, UV 220 nm; approximate comparison of hydrophobicity. An outline of the steps:
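Retention time (tR) reflects hydrophobicity, with detection at 220 nm. Elution used a 5–100% acetonitrile linear gradient over 30 min after a 2 min hold at 5%, then 5 min at 100%, with both phases containing 0.1% TFA. Column was an analytical C18 (4.6 × 250 mm, 5 μm) run at 1 mL/min.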

The test system of series [2] is rat erythrocytes. The series can be described thus: Hemolysis assay. It counts as cell-based. An outline of the steps:
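Washed Sprague-Dawley rat erythrocytes (10% suspension in PBS pH 7.4) mixed with peptoids (0–100 µM), 60 min at 37 °C; supernatant A540 expressed as % of 1% Triton X-100 lysis. HC10/HC50 are concentrations giving 10%/50% hemolysis; Hmax is hemolysis at 100 µM.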

Broadly, the HC50 is the concentration giving 50% haemolysis. Lower therefore signals more damage to red cells. With `C[C@@H](c1ccccc1)N(CC(N)=O)C(=O)CN(C(=O)CN(CCCCN)C(=O)CN(C(=O)CN(C(=O)CN(CCCCN)C(=O)CN(C(=O)CN(C(=O)CN(CCCCN)C(=O)CN(C(=O)CN(C(=O)CN(CCCCN)C(=O)CN(CCc1c[nH]c2ccccc12)C(=O)CNCCc1c[nH]c2ccccc12)[C@@H](C)c1ccccc1)[C@@H](C)c1ccccc1)[C@@H](C)c1ccccc1)[C@@H](C)c1ccccc1)[C@@H](C)c1ccccc1)[C@@H](C)c1ccccc1)[C@@H](C)c1ccccc1` [peptoid 6], the HPLC elution in series [1] came to 57.2 % MeCN. The “Hmax (100 µM)” value in series [2] was 101.6±5.8%. In series [2] (pH 7.4), this compound returned an HC10 of 9.6 µM and an HC50 of 22.0 µM.

`C[C@H](NCC(=O)N(CCCCN)CC(=O)N(CC(=O)N(CC(=O)N(CCCCN)CC(=O)N(CC(=O)N(CC(=O)N(CCCCN)CC(=O)N(CC(=O)N(CC(=O)N(CCCCN)CC(=O)N(CC(N)=O)[C@@H](C)c1ccccc1)[C@@H](C)c1ccccc1)[C@@H](C)c1ccccc1)[C@@H](C)c1ccccc1)[C@@H](C)c1ccccc1)[C@@H](C)c1ccccc1)[C@@H](C)c1ccccc1)c1ccccc1` [peptoid 48] (H-[Nspe][Nlys][Nspe][Nspe][Nlys][Nspe][Nspe][Nlys][Nspe][Nspe][Nlys][Nspe]-NH2): in series [1], the HPLC elution amounted to 53.4 % MeCN. Besides, the “Hmax (100 µM)” value in series [2] is 79.9±3.6%. For the same compound, in series [2] (pH 7.4), the HC10 is reported as 25.7 µM and the HC50 amounted to 48.4 µM.

Regarding `C[C@@H](c1ccccc1)N(CC(N)=O)C(=O)CN(C(=O)CN(CCCCN)C(=O)CN(C(=O)CN(C(=O)CN(CCCCN)C(=O)CN(CCc1c[nH]c2ccccc12)C(=O)CN(CCCCN)C(=O)CN(CCCCN)C(=O)CN(C(=O)CN(C(=O)CNCCCCN)[C@@H](C)c1ccccc1)[C@@H](C)c1ccccc1)[C@@H](C)c1ccccc1)[C@@H](C)c1ccccc1)[C@@H](C)c1ccccc1` [peptoid 26], the HPLC elution in series [1] worked out at 49.5 % MeCN. Besides, the “Hmax (100 µM)” value in series [2] turned out to be 0.7±0.1%. Moreover, in series [2] (pH 7.4), the HC10 is listed as > 100 µM and the HC50 is on record as > 100 µM.

As to `C[C@@H](c1ccccc1)N(CC(=O)N(CCCCN)CC(=O)N(CCCCN)CC(=O)N(CC(=O)N(CC(=O)N(CCCCN)CC(=O)N(CC(=O)N(CC(=O)N(CCCCN)CC(N)=O)[C@@H](C)c1ccccc1)[C@@H](C)c1ccccc1)[C@@H](C)c1ccccc1)[C@@H](C)c1ccccc1)C(=O)CN(CCCCN)C(=O)CN(CCc1c[nH]c2ccccc12)C(=O)CNCCc1c[nH]c2ccccc12` [peptoid 38] (H-[Gly(N(CH2)2(3-indolyl))][Gly(N(CH2)2(3-indolyl))][Nlys][Nspe][Nlys][Nlys][Nspe][Nspe][Nlys][Nspe][Nspe][Nlys]-NH2), in series [1], the HPLC elution is reported as 47.8 % MeCN. In series [2], the “Hmax (100 µM)” value is 5.9±0.5%. Further, in series [2] (pH 7.4), the HC10 is > 100 µM and the HC50 is given as > 100 µM.

As to `C[C@@H](c1ccccc1)N(CC(=O)N(CCCCN)CC(=O)N(CC(=O)N(CC(=O)N(CCCCN)CC(=O)N(CCc1c[nH]c2ccccc12)CC(=O)N(CCc1c[nH]c2ccccc12)CC(N)=O)[C@@H](C)c1ccccc1)[C@@H](C)c1ccccc1)C(=O)CN(C(=O)CN(CCCCN)C(=O)CN(CCc1c[nH]c2ccccc12)C(=O)CN(CCc1c[nH]c2ccccc12)C(=O)CNCCCCN)[C@@H](C)c1ccccc1` [peptoid 18] (H-[Nlys][Gly(N(CH2)2(3-indolyl))][Gly(N(CH2)2(3-indolyl))][Nlys][Nspe][Nspe][Nlys][Nspe][Nspe][Nlys][Gly(N(CH2)2(3-indolyl))][Gly(N(CH2)2(3-indolyl))]-NH2), the HPLC elution in series [1] came out at 53.8 % MeCN. The “Hmax (100 µM)” value in series [2] amounted to 103.5±4.3%. In series [2] (pH 7.4), this compound had an HC10 of 14.3 µM and a 50% haemolytic concentration (HC50) of 37.8 µM.

As for `C[C@@H](c1ccccc1)N(CC(=O)N(CCCCN)CC(=O)N(CC(=O)N(CC(=O)N(CCCCN)CC(=O)N(CCCCN)CC(=O)N(CC(=O)N(CCCCN)CC(=O)N(CCc1c[nH]c2ccccc12)CC(=O)N(CCc1c[nH]c2ccccc12)CC(N)=O)Cc1ccccc1)[C@@H](C)c1ccccc1)[C@@H](C)c1ccccc1)C(=O)CN(C(=O)CNCCCCN)[C@@H](C)c1ccccc1` [peptoid 39] (H-[Nlys][Nspe][Nspe][Nlys][Nspe][Nspe][Nlys][Nlys][Nphe][Nlys][Gly(N(CH2)2(3-indolyl))][Gly(N(CH2)2(3-indolyl))]-NH2), the HPLC elution in series [1] was 47.8 % MeCN. Moreover, the “Hmax (100 µM)” value in series [2] amounted to 10.2±0.3%. Further, in series [2] (pH 7.4), the HC10 stood at 100 µM and the HC50 was > 100 µM.

With `C[C@@H](c1ccccc1)N(CC(N)=O)C(=O)CN(C(=O)CN(CCCCN)C(=O)CN(C(=O)CN(CCCCN)C(=O)CN(CCCCN)C(=O)CN(C(=O)CN(C(=O)CN(CCCCN)C(=O)CN(C(=O)CN(C(=O)CN(CCCCN)C(=O)CN(CCc1c[nH]c2ccccc12)C(=O)CNCCc1c[nH]c2ccccc12)[C@@H](C)c1ccccc1)[C@@H](C)c1ccccc1)[C@@H](C)c1ccccc1)[C@@H](C)c1ccccc1)[C@@H](C)c1ccccc1)[C@@H](C)c1ccccc1` [peptoid 35], the HPLC elution in series [1] is 51.8 % MeCN. Further, the “Hmax (100 µM)” value in series [2] turned out to be 82.6±3.2%. In series [2] (pH 7.4), this compound came in with an HC10 of 20.4 µM and an HC50 of 63.0 µM.

For `C[C@@H](c1ccccc1)N(CC(N)=O)C(=O)CN(C(=O)CN(CCCCN)C(=O)CN(C(=O)CN(C(=O)CN(CCCCN)C(=O)CN(C(=O)CN(C(=O)CN(CCCCN)C(=O)CN(C(=O)CN(C(=O)CN(CCCCN)C(=O)CN(Cc1ccccc1)C(=O)CNCc1ccccc1)[C@@H](C)c1ccccc1)[C@@H](C)c1ccccc1)[C@@H](C)c1ccccc1)[C@@H](C)c1ccccc1)[C@@H](C)c1ccccc1)[C@@H](C)c1ccccc1)[C@@H](C)c1ccccc1` [peptoid 43], in series [1], the HPLC elution turned out to be 56.8 % MeCN. Also, the “Hmax (100 µM)” value in series [2] turned out to be 105.6±3.8%. Besides, in series [2] (pH 7.4), the HC10 is on record as < 3.1 µM and the HC50 stood at 6.4 µM.

`C[C@@H](c1ccccc1)N(CC(=O)N(CCCCN)CC(=O)N(CC(=O)N(CC(=O)N(CCCCN)CC(=O)N(CC(=O)N(CC(=O)N(CCCCN)CC(N)=O)[C@@H](C)c1ccccc1)[C@@H](C)c1ccccc1)[C@@H](C)c1ccccc1)[C@@H](C)c1ccccc1)C(=O)CN(C(=O)CN(CCCCN)C(=O)CN(CCc1c[nH]c2ccccc12)C(=O)CNCCc1c[nH]c2ccccc12)[C@@H](C)c1ccccc1` [peptoid 37] (H-[Gly(N(CH2)2(3-indolyl))][Gly(N(CH2)2(3-indolyl))][Nlys][Nspe][Nspe][Nlys][Nspe][Nspe][Nlys][Nspe][Nspe][Nlys]-NH2): the HPLC elution in series [1] stood at 52.7 % MeCN. Besides, the HC10 in series [2] (pH 7.4) is listed as 21.1 µM; in series [2] (red cells of rat) it was 13.2 µM. In addition, the HC50 in series [2] (pH 7.4) is on record as 57.0 µM; in series [2] (red cells of rat), 38.6 µM.

With `NCCCCNCC(=O)N(CCc1c[nH]c2ccccc12)CC(=O)N(CCc1c[nH]c2ccccc12)CC(=O)N(CCCCN)CC(=O)N(CCc1c[nH]c2ccccc12)CC(=O)N(CCc1c[nH]c2ccccc12)CC(=O)N(CCCCN)CC(=O)N(CCc1c[nH]c2ccccc12)CC(=O)N(CCc1c[nH]c2ccccc12)CC(=O)N(CCCCN)CC(=O)N(CCc1c[nH]c2ccccc12)CC(=O)N(CCc1c[nH]c2ccccc12)CC(N)=O` [peptoid 23] (H-[Nlys][Gly(N(CH2)2(3-indolyl))][Gly(N(CH2)2(3-indolyl))][Nlys][Gly(N(CH2)2(3-indolyl))][Gly(N(CH2)2(3-indolyl))][Nlys][Gly(N(CH2)2(3-indolyl))][Gly(N(CH2)2(3-indolyl))][Nlys][Gly(N(CH2)2(3-indolyl))][Gly(N(CH2)2(3-indolyl))]-NH2), the HPLC elution in series [1] stood at 53.0 % MeCN. For the same compound, the “Hmax (100 µM)” value in series [2] turned out to be 72.2±0.3%. Moreover, in series [2] (pH 7.4), the HC10 amounted to 17.1 µM and the HC50 amounted to 45.2 µM.

Regarding `C[C@@H](c1ccccc1)N(CC(N)=O)C(=O)CN(C(=O)CN(CCCCN)C(=O)CN(C(=O)CN(C(=O)CN(CCCCN)C(=O)CN(C(=O)CN(C(=O)CN(CCCCN)C(=O)CN(Cc1ccccc1)C(=O)CN(Cc1ccccc1)C(=O)CNCCCCN)[C@@H](C)c1ccccc1)[C@@H](C)c1ccccc1)[C@@H](C)c1ccccc1)[C@@H](C)c1ccccc1)[C@@H](C)c1ccccc1` [peptoid 46], in series [1], the HPLC elution was 53.7 % MeCN. For the same compound, the “Hmax (100 µM)” value in series [2] came to 90.8±2.7%. In series [2] (pH 7.4), this compound gave an HC10 of 6.9 µM and an HC50 of 36.5 µM.

As for `C[C@@H](c1ccccc1)N(CC(N)=O)C(=O)CN(C(=O)CN(CCCCN)C(=O)CN(C(=O)CN(C(=O)CN(CCCCN)C(=O)CN(CCc1c[nH]c2ccccc12)C(=O)CN(CCc1c[nH]c2ccccc12)C(=O)CN(CCCCN)C(=O)CN(C(=O)CN(C(=O)CNCCCCN)[C@@H](C)c1ccccc1)[C@@H](C)c1ccccc1)[C@@H](C)c1ccccc1)[C@@H](C)c1ccccc1)[C@@H](C)c1ccccc1` [peptoid 13], the HPLC elution in series [1] amounted to 56.0 % MeCN. For the same compound, in series [2], the “Hmax (100 µM)” value is 96.8±1.6%. Also, in series [2] (pH 7.4), the HC10 was determined as 20.2 µM and the HC50 is 41.3 µM.

For the compound `C[C@@H](c1ccccc1)N(CC(N)=O)C(=O)CN(C(=O)CN(CCCCN)C(=O)CN(CCc1c[nH]c2ccccc12)C(=O)CN(CCc1c[nH]c2ccccc12)C(=O)CN(CCCCN)C(=O)CN(C(=O)CN(C(=O)CN(CCCCN)C(=O)CN(C(=O)CN(C(=O)CNCCCCN)[C@@H](C)c1ccccc1)[C@@H](C)c1ccccc1)[C@@H](C)c1ccccc1)[C@@H](C)c1ccccc1)[C@@H](C)c1ccccc1` [peptoid 12], the HPLC elution in series [1] amounted to 55.9 % MeCN. Also, the “Hmax (100 µM)” value in series [2] came out at 87.4±2.4%. For the same compound, in series [2] (pH 7.4), the HC10 came out at 29.1 µM and the HC50 is 65.2 µM.
